The supplement of paper PMC10307832

Experiments:
Experiment in all cases: relative viability (nuclei count vs DMSO), 5 days (fraction); higher = more cells survive
[1] = test system: PC-14
Outline: (§1)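 Cells from lung cancer lines were seeded into 1536-well plates and, one day later, dosed by pin tool. Treatments were either a single drug or a fixed dose of an anchor drug with five library-drug doses (not always all listed) in √10 steps. After 5 days, nuclei were stained in a one-step fixation (final 0.05% Triton X-100, 1% formaldehyde, 1 ug/ml Hoechst) and counted on 4× images, and relative viability is the treated-to-vehicle nuclei ratio, as the median of duplicate plates.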

[2] = test system: NCI-H838
Outline: as §1

[3] = test system: HCC-15
Outline: as §1

[4] = test system: NCI-H1793
Outline: as §1

[5] = test system: NCI-H1355
Outline: as §1

[6] = test system: NCI-H2342
Outline: as §1

[7] = test system: NCI-H2170
Outline: as §1

[8] = test system: NCI-H647
Outline: as §1

[9] = test system: NCI-H358
Outline: as §1

[10] = test system: NCI-H1734
Outline: as §1

[11] = test system: HOP-62
Outline: as §1

[12] = test system: NCI-H1755
Outline: as §1

[13] = test system: NCI-H1395
Outline: as §1

[14] = test system: EKVX
Outline: as §1

[15] = test system: NCI-H1993
Outline: as §1

[16] = test system: NCI-H2347
Outline: as §1

[17] = test system: HARA
Outline: as §1

## O=C(O)c1ccc(-c2c[nH]c3ncc(-c4ccccc4)cc23)cc1C1CCCC1 + NC(=O)Nc1cc(-c2cccc(F)c2)sc1C(=O)N[C@H]1CCCNC1 [AZD7762] (partner 0.2 µM)
[1]; first compound 0.04 µM
  relative viability: 0.335
[1]; first compound 0.1265 µM
  relative viability: 0.414
[1]; first compound 0.4 µM
  relative viability: 0.407
[1]; first compound 1.265 µM
  relative viability: 0.39
[2]; first compound 0.04 µM
  relative viability: 0.978
[2]; first compound 0.1265 µM
  relative viability: 1.07
[2]; first compound 0.4 µM
  relative viability: 0.992
[2]; first compound 1.265 µM
  relative viability: 0.92
[3]; first compound 0.04 µM
  relative viability: 1.22
[3]; first compound 0.1265 µM
  relative viability: 1.45
[3]; first compound 0.4 µM
  relative viability: 1.42
[3]; first compound 1.265 µM
  relative viability: 1.03
[4]; first compound 0.04 µM
  relative viability: 0.513
[4]; first compound 0.1265 µM
  relative viability: 0.752
[4]; first compound 0.4 µM
  relative viability: 0.544
[4]; first compound 1.265 µM
  relative viability: 0.798
[5]; first compound 0.04 µM
  relative viability: 0.729
[5]; first compound 0.1265 µM
  relative viability: 0.912
[5]; first compound 0.4 µM
  relative viability: 0.856
[5]; first compound 1.265 µM
  relative viability: 0.703
[6]; first compound 0.04 µM
  relative viability: 0.41
[6]; first compound 0.1265 µM
  relative viability: 0.467
[6]; first compound 0.4 µM
  relative viability: 0.535
[6]; first compound 1.265 µM
  relative viability: 0.459
[7]; first compound 0.04 µM
  relative viability: 0.933
[7]; first compound 0.1265 µM
  relative viability: 1.03
[7]; first compound 0.4 µM
  relative viability: 0.895
[7]; first compound 1.265 µM
  relative viability: 0.82
[8]; first compound 0.04 µM
  relative viability: 0.437
[8]; first compound 0.1265 µM
  relative viability: 0.55
[8]; first compound 0.4 µM
  relative viability: 0.489
[8]; first compound 1.265 µM
  relative viability: 0.408
[9]; first compound 0.04 µM
  relative viability: 0.494
[9]; first compound 0.1265 µM
  relative viability: 0.536
[9]; first compound 0.4 µM
  relative viability: 0.456
[9]; first compound 1.265 µM
  relative viability: 0.452
[10]; first compound 0.04 µM
  relative viability: 0.534
[10]; first compound 0.1265 µM
  relative viability: 0.68
[10]; first compound 0.4 µM
  relative viability: 0.606
[10]; first compound 1.265 µM
  relative viability: 0.645
[11]; first compound 0.04 µM
  relative viability: 0.618
[11]; first compound 0.1265 µM
  relative viability: 0.795
[11]; first compound 0.4 µM
  relative viability: 0.637
[11]; first compound 1.265 µM
  relative viability: 0.674
[12]; first compound 0.04 µM
  relative viability: 0.488
[12]; first compound 0.1265 µM
  relative viability: 0.521
[12]; first compound 0.4 µM
  relative viability: 0.547
[12]; first compound 1.265 µM
  relative viability: 0.523
[13]; first compound 0.04 µM
  relative viability: 0.416
[13]; first compound 0.1265 µM
  relative viability: 0.416
[13]; first compound 0.4 µM
  relative viability: 0.409
[13]; first compound 1.265 µM
  relative viability: 0.462
[14]; first compound 0.04 µM
  relative viability: 0.679
[14]; first compound 0.1265 µM
  relative viability: 0.818
[14]; first compound 0.4 µM
  relative viability: 0.888
[14]; first compound 1.265 µM
  relative viability: 0.593
[15]; first compound 0.04 µM
  relative viability: 0.776
[15]; first compound 0.1265 µM
  relative viability: 0.814
[15]; first compound 0.4 µM
  relative viability: 0.832
[15]; first compound 1.265 µM
  relative viability: 0.615
[16]; first compound 0.04 µM
  relative viability: 0.821
[16]; first compound 0.1265 µM
  relative viability: 0.935
[16]; first compound 0.4 µM
  relative viability: 0.797
[16]; first compound 1.265 µM
  relative viability: 0.878
[17]; first compound 0.04 µM
  relative viability: 0.4
[17]; first compound 0.1265 µM
  relative viability: 0.596
[17]; first compound 0.4 µM
  relative viability: 0.385
[17]; first compound 1.265 µM
  relative viability: 0.554
